Structures are written as SMILES.

One experiment deals with GD2 CAR T cells. The experiment in a line: Large-scale manufacturing of GD2.bbz CAR T cells in G-Rex system in regular or inosine media. The experiment is classed as cell-based. The procedure: Enriched CD4/CD8+ T cells from a healthy donor were cultured in regular or inosine-containing media in the G-Rex system. Cells were analyzed at days 7 post-activation. A: Scheme of the large scale experiment. B: Expansion of GD2 CAR T cells manufactured in control vs inosine-containing media. N=1 out of two donors is shown. C: Number of CAR+ T cells at the day 7 post activation. D: Viability of T cells. E: Percentage of CAR+ and CD4 vs CD8 T cells. Data from one representative donor is shown. N=2. F: Relative frequency of terminally differentiated effector (EMRA; CD45RA+ CCR7-), naïve (CD45RA+ CCR7+), central memory (CM; CD45RA-CCR7+), and effector memory (EM; CD45RA-CCR7-) cells in CD8+ control or inosine-grown GD2 CAR T cells. G: IL-2 and IFNγ secretion by CAR T cells stimulated with 143b, mg63.3 or Nalm6-GD2 tumor lines. […] P values were determined by unpaired two-tailed t-tests.
FIG. 13A-13H: Clinical scale manufacturing of clinical grade GD2-CAR T cells using media containing inosine, improves CAR product quality. A: Schematic of large-scale manufacturing of GD2.bbz-CAR+ T cells in a semi-closed G-Rex system in glucose-or inosine-containing media. 7 days post-activation, transduction efficiency, percentage of viable cells, and CD4/CD8 ratio of GD2+ cells were assessed by flow cytometry. […] B: Expansion of total viable T cells manufactured in control (black) vs. inosine (green)-containing media and (Right) corresponding number of CAR+ cells at day 7. […] C: IL-2 and IFNg secretion by CAR T cells stimulated for 24 hrs with 143b, mg63.3 or Nalm6-GD2 tumor lines. […] D: NSG mice were injected with 1×10^6 Nalm6 leukemia cells. On day 3 post-tumor injection, 2×10^6 of mock or GD2.bbz-CAR T cells manufactured in the presence of inosine or in regular media were transferred intravenously. Tumor growth was monitored by bioluminescent imaging. […] P values determined at day 43 by using Mann-Whitney test. […] E: Concentration of CD45+ T cells detected in blood of mice at D33 post-CAR T cell injection. […] F: Schematic of the experimental design. G: GD2.bbz-CAR T cells grown in media containing indicated inosine concentration between day 3 and day 10 post-activation and stimulated with 143b tumor. IL-2 and IFNg secretion after 24 hrs of co-culture was measured. Data are mean±s.d. of duplicate or triplicate wells. Representative of n=3 donors shown. […] Reprograming is due to an increase in glutaminolysis and polyamine synthesis and downregulation of CD73, FOXP3, A2aR and c-AMP response transcription factors.
In this example, the in vivo anti-tumor potency of CAR T cells manufactured in the presence or absence of inosine was assessed. In this particular example, the feasibility of manufacturing GD2 CAR T cells in inosine media in the clinical setting was assessed. 2.5×10^8 enriched CD4+ and CD8+ T cells from a healthy donor were activated with anti-CD3/CD28-coated beads and transduced using clinical grade GD2.bbz vector at MOI=10 (FIG. 6A). From day 3, T cells were continued to be cultured in regular-or inosine containing media in a semi-closed culture system using G-Rex platform. […] There was no difference in product viability (FIG. 6D), nor transduction efficiency nor CD4 vs CD8 ratio (FIG. 6E).
A total of 2.5×10^8 enriched CD4+ and CD8+ T cells from a healthy donor were activated with anti-CD3/CD28-coated beads and transduced using clinical grade GD2-CAR vector at an MOI of 10 (FIG. 13A). On day 3, T cells were maintained in standard RPMI media containing glucose or switched to inosine-containing RPMI without glucose in a semi-closed G-Rex culture platform.

Another experiment deals with Nalm6 leukemia cells. The experiment in a line: Nalm6 leukemia in NSG mice treated with CD19.28 CAR T cells (in vivo stress test). The conditions noted are these: 0.2×10^6 CD19.28 CAR T cells IV day 3, manufactured in inosine vs regular media. The procedure:
A: NSG mice were injected IV with 1×10^6 Nalm6 leukemia cells at day 0, and then 0.2×10^6 CD19.28 CAR T cells, generated in regular or inosine-supplemented media were given IV on day 3. Tumor progression was monitored using bioluminescent imaging. Scales are normalized for all time points. Data are mean+s.e.m. of n=5 mice per group. […] B: NSG mice were injected IV with 1×10^6 Nalm6-GD2+ leukemia cells at day 0, and then 2×10^6 HA CAR T cells, generated in regular or inosine-containing media were given IV on day 3. Tumor progression was monitored using bioluminescent imaging. Scales are normalized for all time points. Data are mean+s.e.m. of n=5 mice per group. […] C: Overall survival. N=5 mice per group. Survival curves were compared using the log-rank Mantel-Cox test. D: NSG mice were injected intramuscular with 1×10^6 143b tumor cells. 4 days later the mice were injected with 1×10^7 Her2, Her2 grown in INO+ media or mock T cells IV. Tumor growth was monitored by caliper measurements. […] N=3-5 mice per group. Survival curves were compared using the log-rank Mantel-Cox test.
In this example, the in vivo anti-tumor potency of CAR T cells manufactured in the presence or absence of inosine was assessed. […] Three days post tumor injection, mice were evaluated and normalized for engraftment using bioluminescent imaging. […]

Experiment [1] concerns HA-CAR T cells and CD19.28z-CAR T cells. As to the kind of experiment: Cell cycle state by BrdU and 7AAD staining. To be noted: day 10, vs control cells, presence or absence of glucose. It counts as cell-based. The source says: 9A: Schematic of the experimental design. […] Graphs represent median expression of indicated markers. […] Representative donor of n=2 donor shown. […] Data are mean+SD from triplicate wells. […] 9K: Schematic of the experimental design. […] Representative donor of n=3 donor shown. […] Representative donor of n=2 donor shown. […] (Top) Dot plots of representative donor shown. […] Representative donor of n=3 donor shown. […] N=2-4 donors from independent experiments. […] N=2-6 donors from independent experiments. […] N=2-4 donors from independent experiments. […] (Top) representative dot plots shown.
Further tested was whether similar functional enhancement occurred with INO exposure in the presence or absence of glucose by serially challenging HA-INO-CAR cells grown in the presence or absence of glucose with Nalm6-GD2. […] Decreased proliferation can be associated with induction of stemness or cells entering quiescence state.

`O=c1[nH]cnc2c1ncn2[C@@H]1O[C@H](CO)[C@@H](O)[C@H]1O` [inosine, Inosine]: in the experiment on GD2 CAR T cells (G-Rex, inosine media from day 3, day 7, one donor (FIG. 6B)), the “total cells after expansion” value is recorded as 384.3×10^6 total cells. Also, the total cell yield in the experiment on GD2 CAR T cells (day 7, INO RPMI without glucose from day 3, n=2 donors, s.e.m.) is on record as 238.5×10^6+145.8. Moreover, in the experiment with GD2 CAR T cells (day 7, inosine vs control), the “CD4 vs CD8 ratio” value was “no difference”; the “frequency of naive and central memory GD2 CAR T cells” value is recorded as “higher frequency”; the product viability entry is “no difference”; the transduction efficiency entry is “no difference”. In addition, the “tumor growth (bioluminescent imaging)” value with Nalm6 leukemia cells is reported as “significantly delayed tumor growth”. Moreover, in experiment [1], the cell cycle distribution result was “higher proportion of cells in S/G2+M phase”.
